Measured values from patent publication US4459294A, “Phosphoric and thiophosphoric esters of 5(3)-hydroxypyrazoles exerting an insecticidal action” (priority 1977, dated 1984).

Experiments:
Spodoptera littoralis = test: Biological activity on Spodoptera littoralis (Lepidoptera), 5-days old larvae; assay type: in vivo; details: 0.1 permill.; 48 hours after treatment
Method: Biological activity on Spodoptera littoralis (Lepidoptera)
Cut tobacco leaves were sprinkled with an aqueous dispersion of the products under examination. After drying, the leaves were infested with 5-days old larvae. The percentage mortality of the larvae was determined 48 hours after treatment (untreated leaves, mortality=0).

Tetranychus urticae = test: Biological activity on Tetranychus urticae (Acari) adults; assay type: in vivo; details: 0.01 permill.; 24 hours after treatment
Method: Biological Activity on Tetranychus urticae (Acari) adults
Small bean leaf discs were infected with adult acari and were then sprinkled with an aqueous dispersion of the products under examination. The percentage of mortality was determined 24 hours after the treatment (untreated discs, mortality=0).

Culex pipiens adults = test: Biological activity on Culex pipiens (Diptera): adults; assay type: in vivo; details: 0.2 g/m^2, 24 hours after beginning of treatment, read-out: percentage of reduction of the infestation (mortality percentage), Culex ad.
Method: Biological activity on Culex pipiens (Diptera): adults
Whatman n°1 paper rectangles were treated uniformly with an acetonic solution of the products under examination. After evaporation of the solvent, each treated paper rectangle was used to line the inside wall of a perspex cylinder (model OMS). The paper-lined perspex cylinder was then closed with a net after having introduced into it 2-3 days old adult females. After one hour from the start of the contact, the insects were transferred into a similar cylinder likewise lined with untreated paper, and were fed with a sugary solution.
The mortality percentage (untreated insects=0) was determined 24 hours after the beginning of the treatment.

Meloidogyne incognita = test: Biological activity on Meloidogyne incognita (Nematoda); assay type: in vivo; details: 20 ppm; 21 days after transplanting
Method: Biological activity on Meloidogyne incognita (Nematoda)
Aliquot parts of a 1:1 mixture of field soil and sand, infested by Nematoda larvae and eggs, were treated by uniformly mixing same with an aqueous dispersion of the products under examination. The soil was then distributed into plastic pots, and after 5 days into each pot there were transplanted 5 tomato plants about 20 cm high. The survey of the results was carried out 21 days after the transplanting, by observing the roots of the plants extracted from the soil in order to ascertain the degree of infestation by counting the galls that have formed on them. The nematocide activity was expressed as a percentage of reduction of the infestation with respect to the witness plant (small plants transplanted into untreated soil, activity=0).

Blatta orientalis = test: Biological activity on Blatta orientalis (Ortoptera); assay type: in vivo; details: 0.1 g/m^2, 48 hours after start of treatment, read-out: percentage of reduction of the infestation (percentage mortality), Blatta
Method: Biological activity on Blatta orientalis (Ortoptera)
The bottom and side walls of glass beakers were treated uniformly with an acetonic solution of the products under examination. After evaporation of the solvent in each beaker, into the same were then introduced ten, 80-100 days old neanides, whereafter they were closed with a lid of metal netting. After 24 hours from the beginning of the treatment, the insects were transferred into untreated glass beakers, and suitably nourished. The percentage mortality (untreated insects=0) was determined 48 hours after the start of the treatment.

[1] = system: Leptinatarsa decomlineata; test: Biological activity on Leptinatarsa decomlineata (Coledptera), 4-day old larvae; assay type: in vivo; details: 0.1 permill.; 48 hours after treatment
Method: Biological activity on Leptinatarsa decomlineata (Coledptera)
Small, pot-grown potato-plants were infested with 4-day old larvae, and then were sprinkled with an aqueous dispersion of the products under examination. The percentage death rate (untreated plants=0) was determined 48 hours after treatment.

Musca domestica = test: Biological activity on Musca domestica (Diptera), topical application; assay type: in vivo; details: 0.5 γ/ins, 24 hours after treatment
Method: Biological activity on Musca domestica (Diptera)
4-days old adults were treated, by topical application by microsyringe, with an acetonic solution of the products under examination.
The mortality percentage (insects treated with acetone only=0) was determined 24 hours after the treatment.

Macrosiphum euphorbiae = test: Biological activity on Macrosiphum euphorbiae (aphides); assay type: in vivo; set-up: tested at 0.01 permill; details: 0.01 permill.; 24 hours after treatment
Method: Biological activity on Macrosiphum euphorbiae (aphides)
Small potato plants grown in pots were infested with adult female aphides and, after several hours, were sprinkled with an aqueous dispersion of the products under examination.
The percentage death rate was determined 24 hours after treatment (untreated plants=0).

Culex pipiens larvae = test: Biological activity on Culex pipiens (diptera) larvae; assay type: in vivo; details: 24 hours after treatment, read-out: percentage of reduction of the infestation (percentage death rate), Culex larvae
Method: Biological activity on Culex pipiens (diptera) larvae
Into glasses containing an aqueous dispersion of the products under examination, were introduced third and fourth age mosquito larvae. The percentage death rate of the larvae (glasses containing pure water=0) was determined 24 hours after treatment.

Pieris brassicae = test: Biological activity on Pieris brassicae (Lepitoptera), 5-day old larvae; assay type: in vivo; details: 0.1 permill.; 48 hours after treatment
Method: Biological activity on Pieris brassicae (Lepitoptera)
Cut cauliflower leaves were sprinkled with an aqueous dispersion of the products under examination. After drying, the leaves were infested with 5-day old larvae. The percentage death rate of the larvae (untreated leaves=0) was determined 48 hours after treatment.

Toxicity by os on rats = details: rat, in vivo, po

Row | Compound | percentage of reduction of the infestation (percentage mortality of larvae), Spodoptera L (Spodoptera littoralis) | percentage of reduction of the infestation (percentage of mortality), Tetran U. (Tetranychus urticae) | mortality at 0.2 g/m2 (Culex pipiens adults) | percentage of reduction of the infestation, Meloidog. I. (Meloidogyne incognita) | mortality at 0.1 g/m2 (Blatta orientalis) | percentage of reduction of the infestation (percentage death rate), Leptinot D. [1] | percentage of reduction of the infestation (mortality percentage), Musca d. (Musca domestica) | percentage of reduction of the infestation (percentage death rate), Macrosiph. E. (Macrosiphum euphorbiae) | mortality at 0.2 ppm (Culex pipiens larvae) | percentage of reduction of the infestation (percentage death rate of larvae), Pieris B (Pieris brassicae) | LD50 (Toxicity by os on rats)
1 | CCOP(=S)(OCC)Oc1cc(C=C(Cl)Cl)nn1C [Compound 6] | 100% | 100% | 76% | 95% | 100% | 100% | 100% | 100% | 100% | 100% | 175 mg/kg
2 | CCOP(=S)(NC(C)C)Oc1cc(Cl)nn1C (stereo not drawn) [Compound 49] | 15% | 63% | 100% | – | 100% | 100% | 100% | 81% | 100% | 100% | –
3 | CCOP(=S)(OCC)Oc1cc(C=C(Cl)Cl)nn1CCC#N [Compound 9] | 100% | 85% | 0% | – | 100% | 100% | 100% | 85% | 100% | 100% | –
4 | CCOP(=S)(OC)Oc1cc(Cl)n(-c2ccc([N+](=O)[O-])cc2)n1 (stereo not drawn) [Compound 51] | 100% | 94% | 0% | 82% | – | 85% | 100% | 51% | 100% | 100% | –
5 | CCOP(=S)(OCC)Oc1cc(Cl)nn1CCC#N [Compound 7] | 100% | 100% | 70% | 100% | 100% | 100% | 100% | 100% | 100% | 100% | –
6 | CCn1nc(Cl)cc1OP(=S)(OC)OC [Compound 21] | 70% | 100% | 100% | 100% | 100% | 100% | 100% | 100% | 100% | 100% | –
7 | CCOP(=S)(OCC)Oc1cc(Cl)n[nH]1 [Compound 11] | – | – | – | – | – | – | – | – | – | – | 70 mg/kg
8 | COP(=S)(OC)Oc1cc(Cl)nn1C(C)C [Compound 4] | 80% | 80% | 100% | – | 100% | 100% | 100% | 94% | 100% | – | 1100 mg/kg
9 | CCOP(=S)(OCC)Oc1cc(Cl)nn1CC [Compound 3] | 82% | 100% | 100% | 96% | 100% | 100% | 100% | 98% | 100% | 100% | –
10 | CCOP(=S)(OCC)Oc1cc(Cl)nn1Cc1ccccc1 [Compound 29] | 100% | 100% | 5% | 59% | 100% | 100% | 100% | 60% | 100% | 100% | –
11 | CCOP(=S)(OCC)Oc1cc(Cl)n(-c2ccc([N+](=O)[O-])cc2)n1 [Compound 52] | 95% | 96% | 0% | 96% | 100% | 37% | 100% | 54% | 100% | 100% | –
12 | CCOP(=S)(OC)Oc1cc(Cl)nn1CC (stereo not drawn) [Compound 24] | 90% | 100% | 100% | 62% | 100% | 100% | 100% | 96% | 100% | 100% | –
13 | CCOP(=S)(OCC)Oc1cc(Cl)nn1-c1ccccc1 [Compound 2] | 100% | – | 100% | – | 100% | 97% | 100% | 40% | 100% | 100% | 33 mg/kg
